# Tested on: MV-4-11 cells
# Experiment: Gene expression microarray analysis (Affymetrix PrimeView) and GSEA
# Format: cell-based, human
# Parameters: RFU PODN (11730768_x_at) / Fold change /veh PODN (11730768_x_at) / RFU LINC00158 (11744669_a_at) / Fold change /veh LINC00158 (11744669_a_at) / RFU DUSP10 (11751237_a_at) / Fold change /veh DUSP10 (11751237_a_at) / RFU ID3 (11757404_x_at) / Fold change /veh ID3 (11757404_x_at) / RFU PLEKHG5 (11737974_s_at) / Fold change /veh PLEKHG5 (11737974_s_at) / RFU LRRC4B (11730491_at) / Fold change /veh LRRC4B (11730491_at) / RFU GIMAP4 (11747438_a_at) / Fold change /veh GIMAP4 (11747438_a_at) / RFU KRT8 (11758183_x_at) / Fold change /veh KRT8 (11758183_x_at) / RFU CNN1 (11734310_a_at) / Fold change /veh CNN1 (11734310_a_at) / RFU VPS37D (11726825_at) / Fold change /veh VPS37D (11726825_at) / RFU C10orf10 (11716522_x_at) / Fold change /veh C10orf10 (11716522_x_at) / RFU KIR2DL2 /// KIR2DL4 /// KIR2DL5A /// KIR2DL5B /// KIR2DS1 /// KIR2DS2 /// KIR2DS3 /// KIR2DS4 /// KIR3DL3 /// KIR3DL3 /// KIR3DS1 (11738374_at) / Fold change /veh KIR2DL2 /// KIR2DL4 /// KIR2DL5A /// KIR2DL5B /// KIR2DS1 /// KIR2DS2 /// KIR2DS3 /// KIR2DS4 /// KIR3DL3 /// KIR3DL3 /// KIR3DS1 (11738374_at) / RFU C1QL1 (11718748_at) / Fold change /veh C1QL1 (11718748_at) / RFU TMPRSS4 (11747572_a_at) / Fold change /veh TMPRSS4 (11747572_a_at) / RFU HAMP (11756126_x_at) / Fold change /veh HAMP (11756126_x_at) / RFU RNFT2 (11725882_a_at) / Fold change /veh RNFT2 (11725882_a_at) / RFU NR4A2 (11747474_a_at) / Fold change /veh NR4A2 (11747474_a_at) / RFU ABCC12 (11746883_a_at) / Fold change /veh ABCC12 (11746883_a_at) / RFU TMEM136 (11760407_x_at) / Fold change /veh TMEM136 (11760407_x_at) / RFU CLDN22 /// WWC2 (11732394_at) / Fold change /veh CLDN22 /// WWC2 (11732394_at) / RFU HLA-DPB1 (11760878_x_at) / Fold change /veh HLA-DPB1 (11760878_x_at) / RFU SPINT1 (11716480_a_at) / Fold change /veh SPINT1 (11716480_a_at) / RFU GAP43 (11754022_s_at) / Fold change /veh GAP43 (11754022_s_at) / RFU A4GNT (11735810_at) / Fold change /veh A4GNT (11735810_at) / RFU PRB3 (11715151_x_at) / Fold change /veh PRB3 (11715151_x_at) / RFU TUBB4B (11761932_at) / Fold change /veh TUBB4B (11761932_at) / RFU CAPN14 (11732068_a_at) / Fold change /veh CAPN14 (11732068_a_at) / RFU TMCC2 (11721928_a_at) / Fold change /veh TMCC2 (11721928_a_at) / RFU IRGQ (11745062_a_at) / Fold change /veh IRGQ (11745062_a_at) / RFU FAM174B (11720279_a_at) / Fold change /veh FAM174B (11720279_a_at) / RFU TMPRSS4 (11748680_a_at) / Fold change /veh TMPRSS4 (11748680_a_at) / RFU FAM212B (11763350_a_at) / Fold change /veh FAM212B (11763350_a_at) / RFU PLEKHG5 (11743358_a_at) / Fold change /veh PLEKHG5 (11743358_a_at) / RFU ZSCAN30 (11745921_a_at) / Fold change /veh ZSCAN30 (11745921_a_at) / RFU CMKLR1 (11741424_a_at) / Fold change /veh CMKLR1 (11741424_a_at) / RFU LOC101060620 /// MAPK8IP1 (11723275_at) / Fold change /veh LOC101060620 /// MAPK8IP1 (11723275_at) / RFU SPTSSB (11747773_x_at) / Fold change /veh SPTSSB (11747773_x_at) / RFU PRSS12 (11739890_at) / Fold change /veh PRSS12 (11739890_at) / RFU BIN1 (11741810_x_at) / Fold change /veh BIN1 (11741810_x_at) / RFU WNT11 (11732464_a_at) / Fold change /veh WNT11 (11732464_a_at) / RFU C10orf10 (11716521_a_at) / Fold change /veh C10orf10 (11716521_a_at) / RFU C5orf56 (11738089_at) / Fold change /veh C5orf56 (11738089_at) / RFU CYB561 (11721691_x_at) / Fold change /veh CYB561 (11721691_x_at) / RFU ANKRD19P (11752326_a_at) / Fold change /veh ANKRD19P (11752326_a_at) / RFU OR2T12 /// OR2T33 /// OR2T8 (11738714_s_at) / Fold change /veh OR2T12 /// OR2T33 /// OR2T8 (11738714_s_at) / RFU VCAN (11748164_a_at) / Fold change /veh VCAN (11748164_a_at) / RFU JSRP1 (11732532_at) / Fold change /veh JSRP1 (11732532_at) / RFU KRTAP10-11 (11738290_x_at) / Fold change /veh KRTAP10-11 (11738290_x_at) / RFU MYO3A (11730013_a_at) / Fold change /veh MYO3A (11730013_a_at) / RFU EBF3 (11725865_a_at) / Fold change /veh EBF3 (11725865_a_at) / RFU CAMK2N1 (11719241_x_at) / Fold change /veh CAMK2N1 (11719241_x_at) / RFU C5orf56 (11738088_a_at) / Fold change /veh C5orf56 (11738088_a_at) / RFU OLFML3 (11715873_a_at) / Fold change /veh OLFML3 (11715873_a_at) / RFU LOC100653217 /// NTM (11731650_a_at) / Fold change /veh LOC100653217 /// NTM (11731650_a_at) / RFU MAPK11 (11762145_a_at) / Fold change /veh MAPK11 (11762145_a_at) / RFU FIZ1 (11724087_x_at) / Fold change /veh FIZ1 (11724087_x_at) / RFU OASL (11726364_x_at) / Fold change /veh OASL (11726364_x_at) / RFU SOX15 (11748057_x_at) / Fold change /veh SOX15 (11748057_x_at) / RFU CD79A (11719716_a_at) / Fold change /veh CD79A (11719716_a_at) / RFU HIST1H1D (11736915_at) / Fold change /veh HIST1H1D (11736915_at) / RFU CASKIN2 (11723855_a_at) / Fold change /veh CASKIN2 (11723855_a_at) / RFU LOC730098 (11760151_x_at) / Fold change /veh LOC730098 (11760151_x_at) / RFU OR4N2 (11742367_at) / Fold change /veh OR4N2 (11742367_at) / RFU PRRT2 (11749266_a_at) / Fold change /veh PRRT2 (11749266_a_at) / RFU SNX32 (11753110_a_at) / Fold change /veh SNX32 (11753110_a_at) / RFU CDHR5 (11726645_a_at) / Fold change /veh CDHR5 (11726645_a_at) / RFU RCAN1 (11760418_a_at) / Fold change /veh RCAN1 (11760418_a_at) / RFU FAM167A (11723789_a_at) / Fold change /veh FAM167A (11723789_a_at) / RFU FAM26E (11764081_at) / Fold change /veh FAM26E (11764081_at) / RFU ISYNA1 (11749810_s_at) / Fold change /veh ISYNA1 (11749810_s_at) / RFU ACY1 (11761880_at) / Fold change /veh ACY1 (11761880_at) / RFU 11764098_at / Fold change /veh 11764098_at / RFU SAMD14 (11745864_x_at) / Fold change /veh SAMD14 (11745864_x_at) / RFU NPB (11741838_a_at) / Fold change /veh NPB (11741838_a_at) / RFU TMPRSS6 (11731388_a_at) / Fold change /veh TMPRSS6 (11731388_a_at) / RFU KRTAP10-2 (11738614_at) / Fold change /veh KRTAP10-2 (11738614_at) / RFU ARHGAP8 /// PRR5-ARHGAP8 (11727945_x_at) / Fold change /veh ARHGAP8 /// PRR5-ARHGAP8 (11727945_x_at) / RFU KRTAP5-7 /// NADSYN1 (11734609_at) / Fold change /veh KRTAP5-7 /// NADSYN1 (11734609_at) / RFU RASL12 (11751679_a_at) / Fold change /veh RASL12 (11751679_a_at) / RFU CDKN2B (11736163_a_at) / Fold change /veh CDKN2B (11736163_a_at) / RFU PRF1 (11729649_at) / Fold change /veh PRF1 (11729649_at) / RFU, ZNF638 /// ZNF638-IT1 / Fold change vs veh, ZNF638 /// ZNF638-IT1 / RFU, PANK3 / Fold change vs veh, PANK3 / RFU, SH3YL1 / Fold change vs veh, SH3YL1 / RFU, ZEB2 / Fold change vs veh, ZEB2 / RFU, NRIP1 / Fold change vs veh, NRIP1 / RFU, PTTG1IP / Fold change vs veh, PTTG1IP / RFU, CAPN2 / Fold change vs veh, CAPN2 / RFU, MED14 / Fold change vs veh, MED14 / RFU, SNORA58 / Fold change vs veh, SNORA58 / RFU, C1orf63 / Fold change vs veh, C1orf63 / RFU, LRRFIP1 / Fold change vs veh, LRRFIP1 / RFU, NDUFAF7 / Fold change vs veh, NDUFAF7 / RFU, SLC12A2 / Fold change vs veh, SLC12A2 / RFU, IBTK / Fold change vs veh, IBTK / RFU, ESF1 / Fold change vs veh, ESF1 / Fold change vs veh, TMEM50B / RFU, TAOK1 / Fold change vs veh, TAOK1 / RFU, ACBD3 / Fold change vs veh, ACBD3 / RFU, TMA16 / Fold change vs veh, TMA16 / RFU, RWDD3 / Fold change vs veh, RWDD3 / RFU, BCAT1 / Fold change vs veh, BCAT1 / RFU, EDEM3 / Fold change vs veh, EDEM3 / RFU, TMEM33 / Fold change vs veh, TMEM33 / RFU, WDR75 / Fold change vs veh, WDR75 / RFU, AHCTF1 / Fold change vs veh, AHCTF1 / RFU, TFRC / Fold change vs veh, TFRC / RFU, ZDHHC17 / Fold change vs veh, ZDHHC17 / RFU, NOM1 / Fold change vs veh, NOM1 / RFU, ARL8B / Fold change vs veh, ARL8B / RFU, ZBTB11 / Fold change vs veh, ZBTB11 / RFU, TAMM41 / Fold change vs veh, TAMM41 / RFU, KIAA1704 /// LOC100996395 / Fold change vs veh, KIAA1704 /// LOC100996395 / RFU, ING1 / Fold change vs veh, ING1 / RFU, TRMT61B / Fold change vs veh, TRMT61B / RFU, FUBP3 / Fold change vs veh, FUBP3 / RFU, TP53 / Fold change vs veh, TP53 / RFU, TNKS2 / Fold change vs veh, TNKS2 / RFU, ZFP14 / Fold change vs veh, ZFP14 / RFU, ACTR2 / Fold change vs veh, ACTR2 / RFU, PPP3R1 / Fold change vs veh, PPP3R1 / RFU, PIK3R1 / Fold change vs veh, PIK3R1 / RFU, HNRNPA1 / Fold change vs veh, HNRNPA1 / RFU, RNF170 / Fold change vs veh, RNF170 / RFU, ZNF28 / Fold change vs veh, ZNF28 / RFU, RNGTT / Fold change vs veh, RNGTT / RFU, OGT / Fold change vs veh, OGT / RFU, BRD1 / Fold change vs veh, BRD1 / RFU, MARS / Fold change vs veh, MARS / RFU, ZNF655 / Fold change vs veh, ZNF655 / RFU, FAHD1 / Fold change vs veh, FAHD1 / RFU, BDP1 / Fold change vs veh, BDP1 / RFU, LRRCC1 / Fold change vs veh, LRRCC1 / RFU, ARID1A / Fold change vs veh, ARID1A / RFU, ZNF146 / Fold change vs veh, ZNF146 / RFU, ZNF330 / Fold change vs veh, ZNF330 / RFU, GPN3 / Fold change vs veh, GPN3 / RFU, C9orf123 / Fold change vs veh, C9orf123 / RFU, N4BP2L2 / Fold change vs veh, N4BP2L2 / RFU, ARFIP1 / Fold change vs veh, ARFIP1 / RFU, FAM179B / Fold change vs veh, FAM179B / RFU, BCL10 / Fold change vs veh, BCL10 / RFU, UHRF1BP1L / Fold change vs veh, UHRF1BP1L / RFU, BET1 / Fold change vs veh, BET1 / RFU, CNOT2 / Fold change vs veh, CNOT2 / RFU, ZNF268 / Fold change vs veh, ZNF268 / Fold change vs veh, ZNF507 / RFU, DGCR2 / Fold change vs veh, DGCR2 / RFU, WDSUB1 / Fold change vs veh, WDSUB1 / Fold change vs veh, HSP90B1 /// MIR3652 / RFU, ADSS / Fold change vs veh, ADSS / RFU, GK / Fold change vs veh, GK / RFU, ZNF148 / Fold change vs veh, ZNF148 / RFU, TAF9 / Fold change vs veh, TAF9 / RFU, SLC1A5 / Fold change vs veh, SLC1A5 / RFU, SLMO2 / Fold change vs veh, SLMO2 / RFU, ABCC4 / Fold change vs veh, ABCC4 / RFU, LOC101060439 /// RAP1B / Fold change vs veh, LOC101060439 /// RAP1B / RFU, RFX7 / Fold change vs veh, RFX7 / RFU, GTPBP10 / Fold change vs veh, GTPBP10 / RFU, CNEP1R1 / Fold change vs veh, CNEP1R1 / RFU, BIVM-ERCC5 /// ERCC5 / Fold change vs veh, BIVM-ERCC5 /// ERCC5 / RFU, ILF3 / Fold change vs veh, ILF3 / RFU 11762660_at / Fold change /veh 11762660_at / RFU VCAN (11757783_s_at) / Fold change /veh VCAN (11757783_s_at) / RFU DDX43 (11728927_at) / Fold change /veh DDX43 (11728927_at) / RFU KRT8 (11758188_x_at) / Fold change /veh KRT8 (11758188_x_at) / RFU NKD1 (11759106_at) / Fold change /veh NKD1 (11759106_at) / RFU SRD5A1 (11742802_a_at) / Fold change /veh SRD5A1 (11742802_a_at) / RFU TPSAB1 /// TPSB2 (11721975_s_at) / Fold change /veh TPSAB1 /// TPSB2 (11721975_s_at) / RFU GSTM3 (11746129_a_at) / Fold change /veh GSTM3 (11746129_a_at) / RFU IL23R (11737362_x_at) / Fold change /veh IL23R (11737362_x_at) / RFU TMEM51 (11727254_a_at) / Fold change /veh TMEM51 (11727254_a_at) / RFU PIWIL2 (11732686_x_at) / Fold change /veh PIWIL2 (11732686_x_at) / RFU ORM1 (11744905_x_at) / Fold change /veh ORM1 (11744905_x_at) / RFU CCDC152 (11743942_at) / Fold change /veh CCDC152 (11743942_at) / RFU ECM1 (11717891_a_at) / Fold change /veh ECM1 (11717891_a_at) / RFU IL23R (11748794_a_at) / Fold change /veh IL23R (11748794_a_at) / RFU TNFAIP8L3 (11732012_x_at) / Fold change /veh TNFAIP8L3 (11732012_x_at) / RFU MBOAT4 (11741988_at) / Fold change /veh MBOAT4 (11741988_at) / RFU 11764193_at / Fold change /veh 11764193_at / RFU TMEM53 (11763286_at) / Fold change /veh TMEM53 (11763286_at) / RFU MAGEB2 (11727129_at) / Fold change /veh MAGEB2 (11727129_at) / RFU TMEM200A (11744735_a_at) / Fold change /veh TMEM200A (11744735_a_at) / RFU CCDC152 (11751479_a_at) / Fold change /veh CCDC152 (11751479_a_at) / RFU FAM211A (11726209_a_at) / Fold change /veh FAM211A (11726209_a_at) / RFU RGS16 (11746705_a_at) / Fold change /veh RGS16 (11746705_a_at) / RFU VCAN (11755009_s_at) / Fold change /veh VCAN (11755009_s_at) / RFU RHOB (11743442_s_at) / Fold change /veh RHOB (11743442_s_at) / RFU RGS16 (11720943_a_at) / Fold change /veh RGS16 (11720943_a_at) / RFU RGS16 (11720944_at) / Fold change /veh RGS16 (11720944_at) / RFU, VPS4B / Fold change vs veh, VPS4B / RFU, CREB1 / Fold change vs veh, CREB1 / RFU, DNAJC13 / Fold change vs veh, DNAJC13 / RFU, GNAQ / Fold change vs veh, GNAQ / RFU, CDK5R1 / Fold change vs veh, CDK5R1 / RFU, ZRANB3 / Fold change vs veh, ZRANB3 / RFU, CUL4A / Fold change vs veh, CUL4A / RFU, CCNY / Fold change vs veh, CCNY / RFU, UFL1 / Fold change vs veh, UFL1 / RFU, COG3 / Fold change vs veh, COG3 / RFU, DIAPH2 / Fold change vs veh, DIAPH2 / RFU, SKA2 / Fold change vs veh, SKA2 / RFU, AFF3 / Fold change vs veh, AFF3 / RFU, LMF1 / Fold change vs veh, LMF1 / RFU, IPO11 / Fold change vs veh, IPO11 / RFU, DFFB / Fold change vs veh, DFFB / RFU, FOXP1 / Fold change vs veh, FOXP1 / RFU, CARD8 / Fold change vs veh, CARD8 / RFU, STRN3 / Fold change vs veh, STRN3 / RFU, ADK / Fold change vs veh, ADK / RFU, RASSF2 / Fold change vs veh, RASSF2 / RFU, WIPF1 / Fold change vs veh, WIPF1 / RFU, LARP1B / Fold change vs veh, LARP1B / RFU, RASA1 / Fold change vs veh, RASA1 / RFU, RB1 / Fold change vs veh, RB1 / RFU, PPFIA1 / Fold change vs veh, PPFIA1 / RFU, MAT2A / Fold change vs veh, MAT2A / RFU, CCT5 / Fold change vs veh, CCT5 / RFU, WDR92 / Fold change vs veh, WDR92 / RFU, CUX1 / Fold change vs veh, CUX1 / RFU, TTC7A / Fold change vs veh, TTC7A / RFU, TMEM135 / Fold change vs veh, TMEM135 / RFU, DEPTOR / Fold change vs veh, DEPTOR / RFU, CPM / Fold change vs veh, CPM / RFU, DNAJB6 / Fold change vs veh, DNAJB6 / RFU, CACNA2D3 / Fold change vs veh, CACNA2D3 / RFU, DTX4 / Fold change vs veh, DTX4 / RFU, TFCP2 / Fold change vs veh, TFCP2 / RFU, GMCL1 /// GMCL1P1 / Fold change vs veh, GMCL1 /// GMCL1P1 / RFU, AEBP2 / Fold change vs veh, AEBP2 / RFU, SNHG1 /// SNORD22 /// SNORD25 /// SNORD26 /// SNORD27 /// SNORD28 /// SNORD29 /// SNORD31 / Fold change vs veh, SNHG1 /// SNORD22 /// SNORD25 /// SNORD26 /// SNORD27 /// SNORD28 /// SNORD29 /// SNORD31 / Fold change (Aza/veh), C12orf56 (ProbeSet 11735607_a_at) / Fold change (ACY-1035/veh), C12orf56 (ProbeSet 11735607_a_at) / Fold change (Aza/veh), FGFR1OP (ProbeSet 11751329_s_at) / Fold change (ACY-1035/veh), FGFR1OP (ProbeSet 11751329_s_at) / Fold change (Aza/veh), VPS36 (ProbeSet 11739960_a_at) / Fold change (ACY-1035/veh), VPS36 (ProbeSet 11739960_a_at) / RFU SYPL1 (11715823_x_at) / Fold change /veh SYPL1 (11715823_x_at) / RFU IGFBP7 (11715501_s_at) / Fold change /veh IGFBP7 (11715501_s_at) / RFU REEP3 (11722064_at) / Fold change /veh REEP3 (11722064_at) / RFU IGLL1 (11728026_x_at) / Fold change /veh IGLL1 (11728026_x_at): dose or concentration left out as unconfirmed
# Settings: MV-4-11 cells, 48 hours
compound,measurement,value
Nc1ccc(-c2cccs2)cc1NC(=O)c1ccc2c(c1)cc(C1CC1)n2CCN1CCOCC1 [ACY-1035],Fold change /veh ANKRD19P (11752326_a_at),1.02
